Assay results as given in patent publication US20110300570A1, “METHOD AND SYSTEM FOR GENERATING SPATIALLY AND TEMPORALLY CONTROLLABLE CONCENTRATION GRADIENTS” (THE BRIGHAM AND WOMEN'S HOSPITAL, INC., priority 2008, published 2011).

How the values were obtained:
HL-1 cells [1] = assay: Cytotoxicity testing with HL-1 cells seeded in a 96-well plate; assay type: cell-based; conditions: HL-1 cells in 96-well plate, various concentrations of toxin
Experimental: In this example, the stabilized, spatially and temporally controllable concentration gradient technique is utilized for cytotoxicity testing. A cardiac muscle cell line (HL-1) is used to investigate the cytotoxicity of Alpha-cypermethrin, a cardiac toxin. Three drops of 2 μL medium containing 20 mM Alpha-cypermethrin were loaded consecutively into the micro-devices with HL-1 cells seeded along the channel. […] The cytotoxicity of the toxin gradient was further tested on the HL-1 cells by conducting a live-dead assay. […] According to the correlation between cell viability and morphology changes with respect to Alpha-cypermethrin concentration obtained from the toxicity testing on HL-1 cells seeded in 96-well plates, the experimental conditions used in this example established a concentration gradient of the toxin from 12.5 mM to 0 mM along the 5 cm-length channel based on the assay conducted in this example.

HL-1 cells [2] = assay: Cytotoxicity testing of a stabilized toxin concentration gradient on HL-1 cells in the microfluidic channel; assay type: cell-based
Experimental: HL-1 cells (Cardiac muscle cell line) were cultured with medium containing 87% Claycomb Medium, 10% Fetal Bovine Serum (FBS), 1% Penicillin/Streptomycin, 1% Norepinephrine, and 1% L-Glutamine at 37° C. in a humidified 5% CO2/95% air incubator. To enhance the cell adhesion, the bottom glass slide was coated with a mixture of extracellular matrix (0.02% gelatin (w/w) and 5 μg/mL fibronectin) after the top channel was bonded to the bottom glass slide. To seed the cells into the microfluidic device, the cells were trypsinized and seeded through the outlet port using dynamic seeding at a cell density of 2×10^6 cells mL-1 that allowed uniform cell distribution. Cells were cultured for 2 h to ensure attachment. The medium was then changed and 3 drops of 2 μL medium containing 20 mM Alpha-cypermethrin were introduced by passive pumping and a concentration gradient was established by leaving the microfluidic device in the hood for 5 min to allow for evaporation-induced backflow. The microfluidic device was then transferred to a humidified incubator where the concentration gradient of the toxin was stabilized and the cells were treated for 4 h. […] ImageJ was used to quantify the fluorescence images of live-dead staining of the cells. At least three images were used for quantification of the cell viability. […]

CC1(C)C(C=C(Cl)Cl)C1C(=O)OC(C#N)c1cccc(Oc2ccccc2)c1 (stereo not drawn) [Alpha-cypermethrin]
cell morphology (HL-1 cells [1]): drastic morphological change | cell morphology along the channel (HL-1 cells [2]; HL-1 cells exposed 4 h to toxin gradient (loaded 20 mM; gradient 12.5 mM to 0 mM along 5 cm channel)): more severe effects observed in the regions containing higher concentrations of toxin | cell viability (live-dead assay) (HL-1 cells [2]; HL-1 cells exposed 4 h to toxin gradient along the channel): correlation of cell viability was found with the toxin concentration gradient
